ChEMBL document CHEMBL1130254, “Screening solution-phase combinatorial libraries using pulsed ultrafiltration/electrospray mass spectrometry” (J Med Chem, 1997)

Assays:
[1] = Relative ion enhancement, determined in pulsed ultrafiltration; assay type: ADME
[2] = molecular target: T1, Adenosine deaminase (Homo sapiens) (UniProt P00813)
T1 sequence (whole entry): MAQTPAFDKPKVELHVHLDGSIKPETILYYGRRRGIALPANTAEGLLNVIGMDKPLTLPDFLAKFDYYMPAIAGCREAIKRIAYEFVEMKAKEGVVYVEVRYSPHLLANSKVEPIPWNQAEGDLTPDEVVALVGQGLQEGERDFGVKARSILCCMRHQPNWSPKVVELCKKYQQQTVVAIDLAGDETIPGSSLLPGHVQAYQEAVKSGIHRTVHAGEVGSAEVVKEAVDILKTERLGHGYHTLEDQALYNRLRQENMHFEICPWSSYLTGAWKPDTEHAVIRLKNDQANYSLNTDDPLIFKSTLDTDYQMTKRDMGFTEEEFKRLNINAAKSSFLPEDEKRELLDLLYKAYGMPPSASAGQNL
Description: Adenosine deaminase inhibition index

Row | SMILES | Ion enhancement [1] | ([I]/[S]0.5) [2]
1 | CC(O)C(Cc1ccccc1)n1cnc2c(N)ncnc21 (stereo unspecified) | < 0.01 | 0.069
2 | CCCCCC[C@@H]([C@@H](C)O)n1cnc2c(N)ncnc21 [EHNA] | 1 | 0.00042
3 | CCCCCCCCC(C(C)O)n1cnc2c(N)ncnc21 (stereo unspecified) | 5.3 | 0.00016
